Results from patent US20260216170A1, “TETRAHYDROISOQUINOLINE HETEROBIFUNCTIONAL BCL-XL DEGRADERS” (Treeline Biosciences, Inc., priority 2023, published 2026).

Biological target: T1, Human BCL-XL protein (N-terminal HiBiT tagged BCL-XL expressed in HT1080 cells) (Homo sapiens, UniProt Q07817)
T1 construct: expressed in transfected cells; host or cells: HT-1080 (ATCC CCL-121), stably transduced with lentivirus pLV-UBC-N-HiBiT-BCL-XL-PGK-puro and selected with puromycin
Test: HiBiT Based Degradation Assay
Assay type: cell-based
Conditions: 24 hours incubation; for DC50: BCL-XL degradation, HT1080 cells expressing N-HiBiT-BCL-XL, normalized with DMSO control, geometric mean for multiple data points, read-out: EC50 (24 h); for Ymin (24 h): bottom of BCL-XL degradation curve (remaining HiBiT-BCL-XL signal vs DMSO control), HT1080 cells
Method in brief: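 BCL-XL degradation was read as Nano-Glo HiBiT lytic luminescence relative to DMSO after a 24 h compound treatment of HT1080 cells carrying stably integrated N-HiBiT-BCL-XL. EC50 values come from four-parameter logistic curves, with the hook-curve minimum fixed as bottom, and are geometric means where tested repeatedly.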

T1 sequence (Q07817 whole entry): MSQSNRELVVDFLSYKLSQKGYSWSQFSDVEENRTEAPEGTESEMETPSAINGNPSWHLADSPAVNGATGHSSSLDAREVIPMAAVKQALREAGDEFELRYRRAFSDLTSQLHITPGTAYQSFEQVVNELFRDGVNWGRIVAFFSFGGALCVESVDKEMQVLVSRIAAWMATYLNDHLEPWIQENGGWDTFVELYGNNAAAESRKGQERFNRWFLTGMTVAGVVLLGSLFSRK

Cc1c(OCC2CC3(CCN(CCNc4ccc5c(C6CCC(=O)NC6=O)nn(C)c5c4)CC3)C2)cccc1-c1ccc(N2CCc3cccc(C(=O)Nc4nc5ccccc5s4)c3C2)nc1C(=O)O (stereo not drawn) [Compound 153, 6-[8-(1,3-benzothiazol-2-ylcarbamoyl)-3,4-dihydro-1H-isoquinolin-2-yl]-3-[3-[[7-[2-[[3-(2,6-dioxo-3-piperidyl)-1-methyl-indazol-6-yl]amino]ethyl]-7-azaspiro[3.5]nonan-2-yl]methoxy]-2-methyl-phenyl]pyridine-2-carboxylic acid]
DC50: < 10 nM | Ymin (24 h): A (Ymin < 30%)

Cn1nc(C2CCC(=O)NC2=O)c2ccc(NC(=O)CN3CCC4(CC3)CC(Oc3cccc(-c5ccc(N6CCc7ccnc(C(=O)Nc8nc9ccccc9s8)c7C6)nc5C(=O)O)c3C(F)(F)F)C4)cc21 (stereo not drawn) [Compound 154, 6-[8-(1,3-benzothiazol-2-ylcarbamoyl)-3,4-dihydro-1H-2,7-naphthyridin-2-yl]-3-[3-[[7-[2-[[3-(2,6-dioxo-3-piperidyl)-1-methyl-indazol-6-yl]amino]-2-oxo-ethyl]-7-azaspiro[3.5]nonan-2-yl]oxy]-2-(trifluoromethyl)phenyl]pyridine-2-carboxylic acid]
DC50: < 10 nM | Ymin (24 h): B (30% ≤ Ymin < 50%)

Cn1nc(C2CCC(=O)NC2=O)c2ccc(NC(=O)CN3CCC4(CC3)CC(Oc3ccc(-c5ccc(N6CCc7cccc(C(=O)Nc8nc9ccccc9s8)c7C6)nc5C(=O)O)c(C(F)(F)F)c3)C4)cc21 (stereo not drawn) [Compound 155, 6-(8-(benzo[d]thiazol-2-ylcarbamoyl)-3,4-dihydroisoquinolin-2(1H)-yl)-3-(4-((7-(2-((3-(2,6-dioxopiperidin-3-yl)-1-methyl-1H-indazol-6-yl)amino)-2-oxoethyl)-7-azaspiro[3.5]nonan-2-yl)oxy)-2-(trifluoromethyl)phenyl)picolinic acid]
DC50: < 10 nM | Ymin (24 h): A (Ymin < 30%)

Cc1c(OCCCC2CCN(CCOc3ccc4c(C5CCC(=O)NC5=O)nn(C)c4c3)CC2)cccc1-c1ccc(N2CCc3cccc(C(=O)Nc4nc5ccccc5s4)c3C2)nc1C(=O)O (stereo not drawn) [Compound 156]
DC50: < 10 nM | Ymin (24 h): B (30% ≤ Ymin < 50%)

Cn1nc(C2CCC(=O)NC2=O)c2ccc(NC(=O)CN3CCC(CCCOc4ccc(-c5ccc(N6CCc7ccnc(C(=O)Nc8nc9ccccc9s8)c7C6)nc5C(=O)O)c(C(F)(F)F)c4)CC3)cc21 (stereo not drawn) [Compound 157, 6-[8-(1,3-benzothiazol-2-ylcarbamoyl)-3,4-dihydro-1H-2,7-naphthyridin-2-yl]-3-[4-[3-[1-[2-[[3-(2,6-dioxo-3-piperidyl)-1-methyl-indazol-6-yl]amino]-2-oxo-ethyl]-4-piperidyl]propoxy]-2-(trifluoromethyl)phenyl]pyridine-2-carboxylic acid]
DC50: 10 to 100 nM | Ymin (24 h): A (Ymin < 30%)

COc1c(NC(=O)CN2CCC(CCCOc3ccc(-c4ccc(N5CCc6ccnc(C(=O)Nc7nc8ccccc8s7)c6C5)nc4C(=O)O)c(C(F)(F)F)c3)CC2)ccc2c(C3CCC(=O)NC3=O)nn(C)c12 (stereo not drawn) [Compound 158, 6-[8-(1,3-benzothiazol-2-ylcarbamoyl)-3,4-dihydro-1H-2,7-naphthyridin-2-yl]-3-[4-[3-[1-[2-[[3-(2,6-dioxo-3-piperidyl)-7-methoxy-1-methyl-indazol-6-yl]amino]-2-oxo-ethyl]-4-piperidyl]propoxy]-2-(trifluoromethyl)phenyl]pyridine-2-carboxylic acid]
DC50: 10 to 100 nM | Ymin (24 h): B (30% ≤ Ymin < 50%)

Cn1nc(C2CCC(=O)NC2=O)c2ccc(NC(=O)CN3CCC(CCCOc4cccc(-c5ccc(N6CCc7ccnc(C(=O)Nc8nc9ccccc9s8)c7C6)nc5C(=O)O)c4C(F)(F)F)CC3)cc21 (stereo not drawn) [Compound 159, 6-[8-(1,3-benzothiazol-2-ylcarbamoyl)-3,4-dihydro-1H-2,7-naphthyridin-2-yl]-3-[3-[3-[1-[2-[[3-(2,6-dioxo-3-piperidyl)-1-methyl-indazol-6-yl]amino]-2-oxo-ethyl]-4-piperidyl]propoxy]-2-(trifluoromethyl)phenyl]pyridine-2-carboxylic acid]
DC50: 10 to 100 nM | Ymin (24 h): B (30% ≤ Ymin < 50%)

Cn1nc(C2CCC(=O)NC2=O)c2ccc(NC(=O)CN3CCC4(CC3)CC(COc3ccc(-c5ccc(N6CCc7ccnc(C(=O)Nc8nc9ccccc9s8)c7C6)nc5C(=O)O)c(C(F)(F)F)c3)C4)cc21 (stereo not drawn) [Compound 160, 6-[8-(1,3-benzothiazol-2-ylcarbamoyl)-3,4-dihydro-1H-2,7-naphthyridin-2-yl]-3-[4-[[7-[2-[[3-(2,6-dioxo-3-piperidyl)-1-methyl-indazol-6-yl]amino]-2-oxo-ethyl]-7-azaspiro[3.5]nonan-2-yl]methoxy]-2-(trifluoromethyl)phenyl]pyridine-2-carboxylic acid]
DC50: < 10 nM | Ymin (24 h): B (30% ≤ Ymin < 50%)

Cn1nc(C2CCC(=O)NC2=O)c2ccc(NC(=O)CN3CCC4(CC3)CC(COc3cccc(-c5ccc(N6CCc7ccnc(C(=O)Nc8nc9ccccc9s8)c7C6)nc5C(=O)O)c3C(F)(F)F)C4)cc21 (stereo not drawn) [Compound 161, 6-[8-(1,3-benzothiazol-2-ylcarbamoyl)-3,4-dihydro-1H-2,7-naphthyridin-2-yl]-3-[3-[[7-[2-[[3-(2,6-dioxo-3-piperidyl)-1-methyl-indazol-6-yl]amino]-2-oxo-ethyl]-7-azaspiro[3.5]nonan-2-yl]methoxy]-2-(trifluoromethyl)phenyl]pyridine-2-carboxylic acid]
DC50: 10 to 100 nM | Ymin (24 h): B (30% ≤ Ymin < 50%)

COc1c(NC(=O)CN2CCC3(CC2)CC(COc2cccc(-c4ccc(N5CCc6ccnc(C(=O)Nc7nc8ccccc8s7)c6C5)nc4C(=O)O)c2C(F)(F)F)C3)ccc2c(C3CCC(=O)NC3=O)nn(C)c12 (stereo not drawn) [Compound 162, 6-[8-(1,3-benzothiazol-2-ylcarbamoyl)-3,4-dihydro-1H-2,7-naphthyridin-2-yl]-3-[3-[[7-[2-[[3-(2,6-dioxo-3-piperidyl)-7-methoxy-1-methyl-indazol-6-yl]amino]-2-oxo-ethyl]-7-azaspiro[3.5]nonan-2-yl]methoxy]-2-(trifluoromethyl)phenyl]pyridine-2-carboxylic acid]
DC50: 10 to 100 nM | Ymin (24 h): B (30% ≤ Ymin < 50%)

Cc1c(OC2CC3(CCN(CC(=O)Nc4ccc5c(C6CCC(=O)NC6=O)nn(C)c5c4)CC3)C2)cccc1-c1ccc(N2CCc3ccnc(C(=O)Nc4nc5ccccc5s4)c3C2)nc1C(=O)O (stereo not drawn) [Compound 163, 6-[8-(1,3-benzothiazol-2-ylcarbamoyl)-3,4-dihydro-1H-2,7-naphthyridin-2-yl]-3-[3-[[7-[2-[[3-(2,6-dioxo-3-piperidyl)-1-methyl-indazol-6-yl]amino]-2-oxo-ethyl]-7-azaspiro[3.5]nonan-2-yl]oxy]-2-methyl-phenyl]pyridine-2-carboxylic acid]
DC50: < 10 nM | Ymin (24 h): B (30% ≤ Ymin < 50%)

COc1c(NC(=O)CN2CCC3(CC2)CC(Oc2cccc(-c4ccc(N5CCc6cccc(C(=O)Nc7nc8ccccc8s7)c6C5)nc4C(=O)O)c2C)C3)ccc2c(C3CCC(=O)NC3=O)nn(C)c12 (stereo not drawn) [Compound 164, 6-(8-(benzo[d]thiazol-2-ylcarbamoyl)-3,4-dihydroisoquinolin-2(1H)-yl)-3-(3-((7-(2-((3-(2,6-dioxopiperidin-3-yl)-7-methoxy-1-methyl-1H-indazol-6-yl)amino)-2-oxoethyl)-7-azaspiro[3.5]nonan-2-yl)oxy)-2-methylphenyl)picolinic acid]
DC50: 10 to 100 nM | Ymin (24 h): B (30% ≤ Ymin < 50%)

COc1c(NC(=O)CN2CCC3(CC2)CC(Oc2cccc(-c4ccc(N5CCc6ccnc(C(=O)Nc7nc8ccccc8s7)c6C5)nc4C(=O)O)c2C(F)(F)F)C3)ccc2c(C3CCC(=O)NC3=O)nn(C)c12 (stereo not drawn) [Compound 165, 6-(8-(benzo[d]thiazol-2-ylcarbamoyl)-3,4-dihydro-2,7-naphthyridin-2(1H)-yl)-3-(3-((7-(2-((3-(2,6-dioxopiperidin-3-yl)-7-methoxy-1-methyl-1H-indazol-6-yl)amino)-2-oxoethyl)-7-azaspiro[3.5]nonan-2-yl)oxy)-2-(trifluoromethyl)phenyl)picolinic acid]
DC50: < 10 nM | Ymin (24 h): B (30% ≤ Ymin < 50%)

COc1c(NC(=O)CN2CCC3(CC2)CC(Oc2cccc(-c4ccc(N5CCc6cccc(C(=O)Nc7nc8ccccc8s7)c6C5)nc4C(=O)O)c2C(F)(F)F)C3)ccc2c(C3CCC(=O)NC3=O)nn(C)c12 (stereo not drawn) [Compound 166, 6-(8-(benzo[d]thiazol-2-ylcarbamoyl)-3,4-dihydroisoquinolin-2(1H)-yl)-3-(3-((7-(2-((3-(2,6-dioxopiperidin-3-yl)-7-methoxy-1-methyl-1H-indazol-6-yl)amino)-2-oxoethyl)-7-azaspiro[3.5]nonan-2-yl)oxy)-2-(trifluoromethyl)phenyl)picolinic acid]
DC50: 10 to 100 nM | Ymin (24 h): B (30% ≤ Ymin < 50%)

Cc1cc(OC2CC3(CCN(CC(=O)Nc4ccc5c(C6CCC(=O)NC6=O)nn(C)c5c4)CC3)C2)ccc1-c1ccc(N2CCc3ccnc(C(=O)Nc4nc5ccccc5s4)c3C2)nc1C(=O)O (stereo not drawn) [Compound 167, 6-[8-(1,3-benzothiazol-2-ylcarbamoyl)-3,4-dihydro-1H-2,7-naphthyridin-2-yl]-3-[4-[[7-[2-[[3-(2,6-dioxo-3-piperidyl)-1-methyl-indazol-6-yl]amino]-2-oxo-ethyl]-7-azaspiro[3.5]nonan-2-yl]oxy]-2-methyl-phenyl]pyridine-2-carboxylic acid]
DC50: < 10 nM | Ymin (24 h): A (Ymin < 30%)
